Test results from patent publication US20230346889A9, “TREATMENT OF ACUTE HEART FAILURE” (AnaCardio R&D AB, priority 2019, published 2023).
Entries after “also recorded” stand apart in the source; their conditions may differ.

Assays:
[1] = tested on: patients with advanced CHF and reduced EF; assay: Trial echocardiography; format: in vivo, human
Experimental: Echocardiography was performed by a technician blinded to treatment allocation and all echo images were analyzed and interpreted by one independent investigator blinded to treatment allocation and clinical history of the patients. Two dimensional images were recorded with a Vivid 7/E9 ultrasound system (GE, Horten, Norway) with a 3 MHz Doppler transducer. A detailed echocardiographic examination including dimensions, cardiac systolic and diastolic function, valve performance and systolic pulmonary artery pressure was performed at baseline (Table 5). A shorter protocol including left ventricular dimensions and function, stroke volume and cardiac output was used for comparison of changes over time (Table 9 and 10). Left ventricular end-systolic and end-diastolic volumes and left ventricular ejection fraction (LVEF) were measured using the modified biplane Simpson's method. LVEF was also measured using the Teichholz method. Because of missing data on LVEF by the Simpson's method due to low image quality, changes in LVEF over time was calculated using the Teichholz method. Left atrial volumes were calculated using the biplane area length method from the apical four- and two-chamber views and indexed to the body surface area. The E/e′ ratio was calculated using the peak E-wave velocity of the mitral inflow and the averaged of septal and lateral tissue Doppler recordings. Tricuspid annular peak systolic excursion (TAPSE) was assessed with M-mode echocardiography. Speckle tracking was used for left ventricular longitudinal strain. […] Stroke volume was derived from the left ventricular outflow tract (LVOT) area and the LVOT […] time integral (VTI) (LVOT area×LVOT VTI). Cardiac output was calculated as the echo derived stroke volume×heart rate.

[2] = Plasma acyl ghrelin pharmacokinetics (custom ELISA); format: in vivo, human
Experimental: In samples dedicated for ghrelin measurements a protease inhibitor cocktail was prepared, consisting of 5.5 μl 10 mM KR-62436 (DPP4 inhibitor) in DMSO and a SIGMAFAST® protease inhibitor tablet (both produced by Sigma-Aldrich Corp., St. Louis, Mo., USA) dissolved in 2100 μl of distilled water (50×stock). Blood samples were drawn using 6 mL EDTA plasma tubes, immediately put on ice and 160 μl of the 50×protease inhibitor cocktail was added. Tubes were vortexed for 10 seconds and centrifuged at 4° C., 10 min, 2500 relative centrifugal force (RCF, or g). The resulting supernatant (plasma) was then pipetted into Eppendorf tubes (450 μl each) and immediately frozen at −70° C. until analyzed.
Plasma concentrations of active (acylated) ghrelin were assayed by a custom ELISA using electrochemiluminescence detection. Plasma samples were thawed and vortexed. They were then analyzed in duplicate on 96-well multispot plates (Meso Scale Diagnostics, Rockville, Md., USA) coated with capture antibodies against acyl-ghrelin according to manufacturer instructions. The Meso Scale Diagnostics Sector Imager 2400 was used to read the plates. The coefficients of variation (CV %) calculated from plasma concentrations after curve fitting were 9.3/3.5 (intra/inter-assay CV %). The lower limit of detection was 3.2 ng/L and upper limit was set at 10,000 ng/L.

[3] = tested on: intracellular cAMP concentration; assay: cAMP measurement in cardiomyocytes (direct immunoassay kit); format: cell-based, mouse; details: vs placebo
Experimental: The intracellular cAMP concentration was measured using the cAMP direct Immunoassay kit (Abcam ab65355). Briefly, frozen cardiomyocytes pellets from groups described above (Placebo, Ghrelin, D-Lys 3 GHS-R1a+Ghrelin) were homogenized on ice using volume of 0.1 M HCl to obtain a protein concentration of 1 mg/ml. Acetylated supernatants of samples were used for the incubation with antibodies in ELISA plates according to the kit manufacturer. Finally, the optic density absorbance at 450 nm was analyzed using a microplate reader (Biotek, Synergy 2). The concentration of cAMP was normalized, dividing the resulting readout (pmol/ml) by the total protein concentration (mg/ml) for each sample. The experiments were conducted by an operator blinded regarding the treatment of the animals.

CCCCCCCC(=O)OC[C@H](NC(=O)[C@H](CO)NC(=O)CN)C(=O)N[C@@H](Cc1ccccc1)C(=O)N[C@@H](CC(C)C)C(=O)N[C@@H](CO)C(=O)N1CCC[C@H]1C(=O)N[C@@H](CCC(=O)O)C(=O)N[C@@H](Cc1cnc[nH]1)C(=O)N[C@@H](CCC(N)=O)C(=O)N[C@@H](CCCNC(=N)N)C(=O)N[C@H](C(=O)N[C@@H](CCC(N)=O)C(=O)N[C@@H](CCC(N)=O)C(=O)N[C@@H](CCCNC(=N)N)C(=O)N[C@@H](CCCCN)C(=O)N[C@@H](CCC(=O)O)C(=O)N[C@@H](CO)C(=O)N[C@@H](CCCCN)C(=O)N[C@@H](CCCCN)C(=O)N1CCC[C@H]1C(=O)N1CCC[C@H]1C(=O)N[C@@H](C)C(=O)N[C@@H](CCCCN)C(=O)N[C@@H](CC(C)C)C(=O)N[C@@H](CCC(N)=O)C(=O)N1CCC[C@H]1C(=O)N[C@@H](CCCNC(=N)N)C(=O)O)C(C)C [Ghrelin]
CO (echocardiography) ([1]; 2-5 days FU): 3.8 ± 1.3 L/min | E/e′ ([1]; 2-5 days FU): 16.2 ± 8.3 ratio | LVEDD ([1]; 2-5 days FU): 66 ± 10 mm | LVEF ([1]; 2-5 days FU): 28.5 ± 11.9% | LVESD ([1]; 2-5 days FU): 57 ± 11 mm | SV (echocardiography) ([1]; 2-5 days FU): 52.5 ± 20.6 mL | TAPSE ([1]; 2-5 days FU): 11.8 ± 6.0 mm | Strain ([1]; 2-5 days FU, n = 12): 10.4 ± 6.4% | CO (echocardiography) ([1]; +30 min): 4.1 ± 1.5 L/min | E/e′ ([1]; +30 min): 15.3 ± 6.6 ratio | LVEDD ([1]; +30 min): 65 ± 9 mm | LVEF ([1]; +30 min): 30.1 ± 11.2% | LVESD ([1]; +30 min): 56 ± 11 mm | SV (echocardiography) ([1]; +30 min): 62.2 ± 23.8 mL | TAPSE ([1]; +30 min): 14.1 ± 5.4 mm | Strain ([1]; +30 min, n = 13): 12.46 ± 4.1% | CO (echocardiography) ([1]; BL): 3.8 ± 1.5 L/min | E/e′ ([1]; BL): 15.2 ± 5.5 ratio | LVEDD ([1]; BL): 66 ± 9 mm | LVESD ([1]; BL): 58 ± 9 mm | SV (echocardiography) ([1]; BL): 54.3 ± 18.4 mL | TAPSE ([1]; BL): 13.0 ± 5.9 mm | LVEF ([1]; BL, Teichholz method): 27.4 ± 7.4% | Strain ([1]; BL, n = 13 in ghrelin group): 11.9 ± 6.3% | CO (echocardiography) ([1]; Baseline (Table 10)): 3.8 ± 1.5 L/min | E/e′ ([1]; Baseline (Table 10)): 15.2 ± 5.5 ratio | LVEDD ([1]; Baseline (Table 10)): 66 ± 9 mm | LVEF ([1]; Baseline (Table 10)): 27.4 ± 7.4% | LVESD ([1]; Baseline (Table 10)): 58 ± 9 mm | SV (echocardiography) ([1]; Baseline (Table 10)): 54.3 ± 18.4 mL | TAPSE ([1]; Baseline (Table 10)): 13.0 ± 5.9 mm | Strain ([1]; Baseline (Table 10), n = 12 in ghrelin group): 11.9 ± 6.3% | CO (echocardiography) ([1]; INF + 60 min): 3.9 ± 1.3 L/min | E/e′ ([1]; INF + 60 min): 17.1 ± 9.5 ratio | LVEDD ([1]; INF + 60 min): 67 ± 9 mm | LVEF ([1]; INF + 60 min): 29.1 ± 11.5% | LVESD ([1]; INF + 60 min): 58 ± 11 mm | SV (echocardiography) ([1]; INF + 60 min): 56.3 ± 21.4 mL | TAPSE ([1]; INF + 60 min): 13.1 ± 4.8 mm | Strain ([1]; INF + 60 min, n = 13): 13.4 ± 4.6% | CO (echocardiography) ([1]; INF + 120 min): 3.9 ± 1.4 L/min | E/e′ ([1]; INF + 120 min): 16.3 ± 8.9 ratio | LVEDD ([1]; INF + 120 min): 67 ± 10 mm | LVEF ([1]; INF + 120 min): 29.8 ± 11.4% | LVESD ([1]; INF + 120 min): 57 ± 11 mm | SV (echocardiography) ([1]; INF + 120 min): 59.5 ± 25.5 mL | TAPSE ([1]; INF + 120 min): 14.2 ± 5.4 mm | Strain ([1]; INF + 120 min, n = 13): 13.2 ± 5.8% | change in CO by echocardiography ([1]; in vivo): trends toward a difference in change of CO in favor of ghrelin; also recorded: a nominal interaction suggesting improvement with ghrelin but no significant differences in change | change in E/e′ ([1]; in vivo): no differences in change; also recorded: no interaction with or differences in change | change in EF ([1]; in vivo): a trend toward a greater absolute (p=0.12) and percent change (p=0.14) in EF with ghrelin; also recorded: a nominal interaction suggesting improvement in EF with ghrelin | change in LVEDD ([1]; in vivo): no change or differences in change | change in LVESD ([1]; in vivo): no change or differences in change | change in SV by echocardiography ([1]; in vivo): a significant difference in change of SV in favor of ghrelin; also recorded: a significant interaction suggesting improvement with ghrelin | change in TAPSE ([1]; in vivo): a trend toward a greater difference in change; also recorded: a trend toward an interaction suggesting improvement in TAPSE | segmental strain by echocardiography ([1]; in vivo): numerical differences in favor of ghrelin but no statistical significance | plasma acyl ghrelin ([2]; 2-5 days follow-up): normalized | plasma acyl ghrelin ([2]; 30 minutes after infusion): near normalized | median plasma acyl ghrelin concentrations ([2]; during infusion, treatment group): quickly reached near the maximum of the assay | level at 0.5 h ([2]; human, plasma, 0.1 ug/kg/min, Infusion 30 min, iv 0.1 μg/kg/min, read-out: plasma acyl ghrelin (median, interquartile range)): 6.11 ng/mL | level at 1 h ([2]; human, plasma, iv, 0.1 ug/kg/min, Infusion 60 min, read-out: plasma acyl ghrelin (median, interquartile range)): 6.84 ng/mL | level at 2 h ([2]; human, plasma, iv, 0.1 ug/kg/min, Infusion 120 min, read-out: plasma acyl ghrelin (median, interquartile range)): 6.54 ng/mL | cAMP concentration in cardiomyocytes [3]: reduces | cAMP concentration in cardiomyocytes ([3]; listed as ghrelin): lower compared to placebo
